Source: US8710179B2, “Compositions and methods for concentrating and depleting microorganisms” (priority 2006, dated 2014)
≈ marks a conversion by molar mass, not a printed value. Read-outs that look alike come from different tables or passages of the source.

How the values were obtained:
[1] = system: E. coli; test: Bacteria capture assay with polymer-loaded resin beads (incl. kinetic studies); format: binding, Escherichia coli ATCC 35218; settings: for Bound E. coli (CFU/mg resin): polymer-loaded resin beads, 30 minutes incubation
Procedure: Various concentrations of bacteria in 500 μl luria bertani broth (LB) were shaken at room temperature in the presence of deprotected polymer-loaded beads (1.8 mg of polymer per sample) or protected polymer-loaded and unloaded beads as a control experiment in a centrifuge tube equipped with a 10 μm cutoff membrane (Whatman polypropylene mesh VectaSpin Micro). After 30 minutes incubation the samples were centrifuged at 21,000×g for 5 minutes to separate beads from unbound bacteria and further analyzed as follows.
(§1) To assess bacterial binding to the beads, filtrates were subjected to serial 10 fold dilutions and plated on LB agar plates. Cell counts were determined using the drop plate method (three 20 μl drops onto LB agar plates) after overnight incubation at 37° C. For the viability study, resins were spread directly on LB agar plates and incubated similarly. For kinetic studies, resins were incubated with 1×10^6 CFU/ml E. coli in LB for up to 15 minutes and filtered after the indicated time periods then plated for CFU count.
“Bound E. coli (CFU/mg resin)” represents the capturing capacity of bacterial binding per one milligram of polymer-loaded resin beads as assessed after 30 minutes incubation using the capture assay as presented herein (column 9 in Table 3).

[2] = system: S. aureus; format: cell-based
Source text: (§2) “MIC (μM)” represents the minimal inhibitory concentration of each tested polymer in μM for each bacterial strain, measured as described previously (columns 5-8 in Table 3); For bacterial strains, “Ec” represents E. coli; “Pa” represents P. aeruginosa; “Sa” represents S. aureus; and “Bc” represents B. cereus; and […]

[3] = system: E. coli; format: cell-based
Source text: as §2

[4] = system: P. aeruginosa; format: cell-based
Source text: as §2

[5] = system: B. cereus; format: cell-based
Source text: as §2

[6] = Hydrophobicity estimation by RP-HPLC (percent acetonitrile at elution); format: physicochemical; settings: RP-HPLC C18, linear acetonitrile gradient 1% per minute
Source text: In order to estimate the hydrophobicity of each polymer, the polymer was eluted with a linear gradient of acetonitrile (1% per minute) on an HPLC reversed-phase C18 column, and the percent of acetonitrile at which the polymer was eluted was used for hydrophobicity estimation (see, “ACN (%)” in Table 3 below).
“ACN (%)” represents the percent of acetonitrile in the RP-HPLC gradient mobile phase at which the polymer was eluted and which corresponds to the estimated hydrophobicity of the polymer (column 4 in Table 3);

[7] = system: E. coli; format: cell-based; remark: listed apart in the source
Procedure: as §1
The non-cytotoxicity of the beads-bound polymers was assessed by the viability of the polymer-captured bacteria. E. coli was incubated with beads-bound polymers (10^6 CFU/ml/mg resin), and after filtration, samples of the resins and the filtrates were plated on LB-agar individually.
FIG. 6 presents a series of images of LB-agar plates, showing the viability of the captured E. coli cells (1×10^6 CFU/ml) which were incubated for 30 minutes with deprotected (FIGS. 6A1 and 6A2) and Boc-protected (FIGS. 6B1 and 6B2) K(NC12K)7NH2-loaded resin beads, wherein FIGS. 6A1 and 6B1 show the plates of the plated filtrates and FIGS. 6A2 and 6B2 show the plates of filtered and plated beads.

[8] = Regeneration and stability of polymer-loaded beads (HPLC and MS after cleavage); format: physicochemical
Source text: To verify their stability and the regeneration thereof, polymer-loaded resin beads were submitted to multiple cycles of bacterial binding followed by their release with 70% ethanol. To assess the potential polymer degradation, the polymer was cleaved from the resin, analyzed by HPLC and identified by mass spectrometry.
Polymer-loaded beads were exposed to 10 consecutive cycles of bacterial binding and release with 70% ethanol, and were submitted to a cleavage reaction. The cleaved polymers were analyzed by HPLC and mass spectrometry before and after the repetitive cycles. The HPLC chromatograms were obtained over […] elution using a 1% gradient of acetonitrile in water (30% to 60%), and the fraction containing the polymer was subjected to mass spectrometry analysis.

[9] = system: bacteria; test: Antibacterial activity (MIC) of the resin-free polymer, strain not given; format: cell-based
Source text: as §2

[10] = system: GFP-expressing E. coli; test: Viability of polymer-captured bacteria, propidium iodide staining
Procedure: To establish the viability of polymer-captured bacteria, samples of polymer-captured GFP-expressing bacteria were incubated for 15 minutes at room temperature in a solution of 1 ml propidium iodide (Invitrogen, USA) in PBS (final concentration 0.06 mM), and thereafter centrifuged/washed in PBS and examined under a confocal fluorescent microscope using emission suitable for GFP and propidium iodide (excitation at 490 nm emission at 620 nm).

[11] = system: E. coli; test: Bacterial binding assay by real-time SPR on polymer-coated chip; settings: 10^6 CFU/ml E. coli
Procedure: Purified resin-free polymers were immobilized onto the CM5 sensor chip (BIAcore, Uppsala, Sweden) via the terminal carboxyl group using 2-(2-pyridinyldithio)ethaneamine (PDEA). Carboxyl activation was achieved as follows. Morpholino-ethanesulfonic acid (MES buffer, 0.1 ml of 0.1 M) at pH 5.0 was used to solubilize 0.1 mg of the polymer. The solution was mixed with PDEA to final concentration of 22 mM and ethyl-3-(3-dimethylaminopropyl)-carbodiimide (EDC) to final concentration of 13 mM, incubated for 1 hour on ice and then placed in a dialysis tube (floating in buffer) to remove the excess reagents. In parallel, a 1:1 solution (20 μl) of EDC (0.4 M 1-ethyl-3-(3-dimethylaminopropyl)-carbodiimide in water):NHS (0.1 M N-hydroxysuccinimide in water) was injected at a flow rate of 10 μl/minute, to activate the chip surface. […]
Bacterial binding to the polymer was determined by surface plasmon resonance (SPR) using the optical biosensor system BIAcore 2000 (BIAcore, Uppsala, Sweden). […]
For real-time monitoring of bacterial capture the present inventors have developed a model system based on the SPR technology that normally enables binding measurements between immobilized receptor molecules and soluble ligands. […] In the example presented herein, the polymer was immobilized onto the sensor chip and bacteria were injected over the polymer-bound surface and their binding monitored in real-time. […]

## CCCCCCCCCCCC(=O)NC(CCCCN)C(=O)NCCCCCCCC(=O)NC(CCCCN)C(=O)NCCCCCCCC(=O)NC(CCCCN)C(=O)NCCCCCCCC(=O)NC(CCCCN)C(=O)NCCCCCCCC(=O)NC(CCCCN)C(=O)NCCCCCCCC(=O)NC(CCCCN)C(=O)NCCCCCCCC(=O)NC(CCCCN)C(=O)NCCCCCCCC(=O)NC(CCCCN)C(N)=O (stereo not shown) [C12K(NC8K)7NH2]
[1]; polymer-loaded resin beads exposed to E. coli
  amount of captured bacteria: approximately 10^3 CFUs
[1]
  Bound E. coli (CFU/mg resin): 1 ± 0.5 × 10^3 CFU/mg resin
[2]; resin-free polymer
  MIC (μM) Sa: 50 µM (≈ 111 µg/mL)
[3]; resin-free polymer
  MIC (μM) Ec: 3.1 µM (≈ 6.86 µg/mL)
[4]; resin-free polymer
  MIC (μM) Pa: 6.2 µM (≈ 13.7 µg/mL)
[5]; resin-free polymer
  MIC (μM) Bc: 12.5 µM (≈ 27.7 µg/mL)
[6]
  ACN (%) at which the polymer was eluted (estimated hydrophobicity): 47.5%

## NCCCC[C@H](NC(=O)CCCCCCCCCCCNC(=O)[C@H](CCCCN)NC(=O)CCCCCCCCCCCNC(=O)[C@H](CCCCN)NC(=O)CCCCCCCCCCCNC(=O)[C@H](CCCCN)NC(=O)CCCCCCCCCCCNC(=O)[C@H](CCCCN)NC(=O)CCCCCCCCCCCNC(=O)[C@H](CCCCN)NC(=O)CCCCCCCCCCCNC(=O)[C@H](CCCCN)NC(=O)CCCCCCCCCCCNC(=O)[C@@H](N)CCCCN)C(N)=O [K(NC12K)7NH2]
[7]
  viable bacteria on the filtered and plated beads: remained alive
[8]
  stability of the polymer after repeated use: remained unchanged
[9]
  MIC: more than 50 μM
[10]; polymer-captured bacteria, did not exceed control suspension
  fraction of dead bacteria: up to 12%
[10]; propidium iodide exclusion
  viability of polymer-captured bacteria: most polymer-captured bacteria were alive
[2]
  MIC (μM) Sa: >50 µM
[3]
  MIC (μM) Ec: >50 µM
[4]
  MIC (μM) Pa: >50 µM
[5]
  MIC (μM) Bc: >50 µM

## dermaseptin [reference compound]
[10]; polymer-bound bacteria exposed 15 minutes at 12.5 μM
  fraction of dead bacteria upon exposure: significantly increased

## H-KKKKKKKK-NH2 [Polymer K8NH2, reference compound]
[1]
  Bound E. coli (CFU/mg resin): 9 ± 1 × 10^2 CFU/mg resin
[2]; resin-free polymer
  MIC (μM) Sa: >50 µM
[3]; resin-free polymer
  MIC (μM) Ec: >50 µM
[4]; resin-free polymer
  MIC (μM) Pa: >50 µM
[5]; resin-free polymer
  MIC (μM) Bc: >50 µM
[6]
  ACN (%) at which the polymer was eluted (estimated hydrophobicity): 20%

## H-KKKKKKKKKKKKKKK-NH2 [Polymer K15NH2, reference compound]
[8]; 10 cycles of bacterial binding and release with 70% ethanol
  stability of the polymer after repeated use: deteriorated over time
[1]
  Bound E. coli (CFU/mg resin): 1 ± 0.6 × 10^3 CFU/mg resin
[2]; resin-free polymer
  MIC (μM) Sa: >50 µM
[3]; resin-free polymer
  MIC (μM) Ec: >50 µM
[4]; resin-free polymer
  MIC (μM) Pa: >50 µM
[5]; resin-free polymer
  MIC (μM) Bc: >50 µM
[11]
  fold less efficient than the K(NC12K)7NH2-coated chip: more than 100 fold
[6]
  ACN (%) at which the polymer was eluted (estimated hydrophobicity): 22%

## NCCCC[C@H](NC(=O)CCCCCCCNC(=O)[C@H](CCCCN)NC(=O)CCCCCCCNC(=O)[C@H](CCCCN)NC(=O)CCCCCCCNC(=O)[C@H](CCCCN)NC(=O)CCCCCCCNC(=O)[C@H](CCCCN)NC(=O)CCCCCCCNC(=O)[C@H](CCCCN)NC(=O)CCCCCCCNC(=O)[C@H](CCCCN)NC(=O)CCCCCCCNC(=O)[C@@H](N)CCCCN)C(N)=O [K(NC8K)7NH2]
[1]
  Bound E. coli (CFU/mg resin): 2 ± 0.6 × 10^2 CFU/mg resin
[2]
  MIC (μM) Sa: >50 µM
[3]
  MIC (μM) Ec: >50 µM
[4]
  MIC (μM) Pa: >50 µM
[5]
  MIC (μM) Bc: >50 µM
[6]
  ACN (%) at which the polymer was eluted (estimated hydrophobicity): 34%
